Read-outs that look alike come from different tables or passages of the source.
How the values were obtained:
EZH2 Mutant Y641N = EZH2 Mutant Y641N (Homo sapiens (Human), UniProt Q15910, Y641N); assay: EZH2 Mutant Y641N nucleosome assay; format: biochemical; settings: PRC2 4-protein complex 6 nM, 1.5 μM SAM, HeLa oligonucleosomes
Method: (§1) The genes for EZH2, EED, SUZ12, and RBBP4 proteins were cloned into pBacPAK9 vectors (Clontech). RBBP4 was FLAG tagged on the N-terminal end. The baculovirus expressions of these proteins were used to co-infect SF9 insect cells. Insect cell pellets were lysed in a buffer containing 25 mM Tris pH8.0, 300 mM NaCl, 0.5 mM TCEP, complete EDTA-free protease inhibitor (Roche), 0.1% NP-40. The supernatant from the lysate was incubated with FLAG® M2 antibody resin (Sigma). The resin was washed on the chromatography column and eluted with 0.2 mg/ml FLAG peptide. The elute was incubated with omnicleave nucleases (Epicentre Technologies) at 4° C. overnight, then concentrated and loaded onto a Superdex 200 (GE Healthcare) column. The Superdex 200 column was eluted with 25 mM Tris pH8.0, 150 mM NaCl, 0.5 mM TCEP. Fractions containing the PRC2 complex were pooled.
(§2) A. Compound preparation • 1.
(§3) B. Reagent preparation • 1. […] Dilute TCA to 20% in DI water
(§4) C. Enzyme reaction • 1. […] Some compounds were tested under high SAM conditions.
(§5) D. Data analysis • 1. IC50 values were determined by fitting the data to a 4-parameter IC50 equation using proprietary curve fitting software. • 2. For compounds tested under high SAM conditions, Ki^app values were obtained by fitting the dose response curve to a model for competitive inhibition using proprietary curve fitting software. Preparation of HeLa Oligonucleosomes: Reagents • Cell Pellet: 15 L HeLa S3 (Accelgen)+6 L HeLa S3 (in house) • Mnase (Worthington Biochemicals) Equipment • SW-28 Rotor • Dounce Homogenizer/B Pestle Buffers • Lysis: 20 mM Hepes pH 7.5, 0.25M Sucrose, 3 mM MgCl2, 0.5% Nonidet P-40, 0.5 mM TCEP, 1 Roche Protease Tablet • B: 20 mM Hepes pH7.5, 3 mM MgCl2, 0.5 mM EDTA, 0.5 mM TCEP, 1 Roche Protease Tablet • MSB: 20 mM Hepes pH7.5, 0.4 M NaCl, 1 mM EDTA, 5% v/v Glycerol, 0.5 mM TCEP, 0.2 mM PMSF • LSB: 20 mM Hepes pH7.5, 0.1M NaCl, 1 mM EDTA, 0.5 mM TCEP, 0.2 mM PMSF • NG: 20 mM Hepes pH7.5, 1 mM EDTA, 0.4 m NaCl, 0.2 mM PMSF, 0.5 mM TCEP • Storage: 20 mM Hepes pH7.5, 1 mM EDTA, 10% Glycerol, 0.2 mM PMSF, 0.5 mM TCEP Protocol

WT EZH2 = WT EZH2 (Homo sapiens (Human), UniProt Q15910); assay: WT EZH2 nucleosome assay (10X SAM, high SAM conditions); format: biochemical; settings: 15 uM SAM, Ki app from competitive inhibition fit, read-out: WT EZH2 Nucleosome assay (10X SAM) Ki
Chain of WT EZH2 (Q15910 whole entry, looked up): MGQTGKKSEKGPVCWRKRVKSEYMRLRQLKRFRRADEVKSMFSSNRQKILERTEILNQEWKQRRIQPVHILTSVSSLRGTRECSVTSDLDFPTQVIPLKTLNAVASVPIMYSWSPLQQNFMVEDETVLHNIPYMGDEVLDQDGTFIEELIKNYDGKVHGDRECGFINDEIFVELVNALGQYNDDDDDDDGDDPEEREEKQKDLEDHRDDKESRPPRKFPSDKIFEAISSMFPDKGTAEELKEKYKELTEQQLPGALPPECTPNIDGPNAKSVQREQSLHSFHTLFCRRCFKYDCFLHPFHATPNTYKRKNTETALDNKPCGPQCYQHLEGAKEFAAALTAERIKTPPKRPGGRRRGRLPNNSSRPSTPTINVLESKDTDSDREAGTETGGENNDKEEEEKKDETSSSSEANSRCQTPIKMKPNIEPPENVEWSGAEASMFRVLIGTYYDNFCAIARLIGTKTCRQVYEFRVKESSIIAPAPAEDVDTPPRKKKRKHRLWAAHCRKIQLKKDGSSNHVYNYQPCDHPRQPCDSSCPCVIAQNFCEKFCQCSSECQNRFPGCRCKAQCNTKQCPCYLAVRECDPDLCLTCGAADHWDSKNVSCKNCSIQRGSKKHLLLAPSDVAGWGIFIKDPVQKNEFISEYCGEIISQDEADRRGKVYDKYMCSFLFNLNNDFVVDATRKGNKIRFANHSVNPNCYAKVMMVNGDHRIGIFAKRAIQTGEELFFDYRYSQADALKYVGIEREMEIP
Chain of WT EZH2 (O75530 whole entry partner, looked up): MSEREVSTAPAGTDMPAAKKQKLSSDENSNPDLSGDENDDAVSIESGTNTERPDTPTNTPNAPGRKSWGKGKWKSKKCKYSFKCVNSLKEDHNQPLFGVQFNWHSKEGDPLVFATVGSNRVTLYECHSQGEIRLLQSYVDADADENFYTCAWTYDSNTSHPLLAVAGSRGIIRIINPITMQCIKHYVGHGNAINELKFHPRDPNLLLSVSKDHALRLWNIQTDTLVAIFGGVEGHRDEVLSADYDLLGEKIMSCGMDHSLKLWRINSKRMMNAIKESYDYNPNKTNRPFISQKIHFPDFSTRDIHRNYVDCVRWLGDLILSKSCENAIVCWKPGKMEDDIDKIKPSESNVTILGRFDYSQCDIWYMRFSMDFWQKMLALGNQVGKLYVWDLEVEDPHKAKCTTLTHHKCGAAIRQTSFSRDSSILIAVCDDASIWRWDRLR
Chain of WT EZH2 (Q15022 whole entry partner, looked up): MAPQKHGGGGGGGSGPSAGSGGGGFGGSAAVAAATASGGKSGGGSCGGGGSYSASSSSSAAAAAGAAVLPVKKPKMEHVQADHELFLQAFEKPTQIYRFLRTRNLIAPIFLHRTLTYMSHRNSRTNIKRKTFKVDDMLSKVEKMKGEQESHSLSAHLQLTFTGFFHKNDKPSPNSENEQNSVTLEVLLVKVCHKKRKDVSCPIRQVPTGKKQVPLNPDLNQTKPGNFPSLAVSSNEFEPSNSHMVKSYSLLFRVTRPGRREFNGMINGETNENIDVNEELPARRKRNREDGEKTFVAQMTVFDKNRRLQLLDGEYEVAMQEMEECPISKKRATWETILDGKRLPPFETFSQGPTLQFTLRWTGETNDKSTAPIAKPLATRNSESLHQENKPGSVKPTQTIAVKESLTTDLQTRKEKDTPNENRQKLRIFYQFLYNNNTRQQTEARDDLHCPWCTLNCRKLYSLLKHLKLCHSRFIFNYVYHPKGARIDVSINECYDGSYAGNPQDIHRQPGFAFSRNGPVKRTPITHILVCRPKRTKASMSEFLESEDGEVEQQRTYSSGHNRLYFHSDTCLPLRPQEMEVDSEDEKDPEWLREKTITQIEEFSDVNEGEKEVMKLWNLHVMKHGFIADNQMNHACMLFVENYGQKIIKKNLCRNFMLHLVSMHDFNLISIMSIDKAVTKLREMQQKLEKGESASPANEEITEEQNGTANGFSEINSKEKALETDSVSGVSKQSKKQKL
Chain of WT EZH2 (Q09028 whole entry partner, looked up): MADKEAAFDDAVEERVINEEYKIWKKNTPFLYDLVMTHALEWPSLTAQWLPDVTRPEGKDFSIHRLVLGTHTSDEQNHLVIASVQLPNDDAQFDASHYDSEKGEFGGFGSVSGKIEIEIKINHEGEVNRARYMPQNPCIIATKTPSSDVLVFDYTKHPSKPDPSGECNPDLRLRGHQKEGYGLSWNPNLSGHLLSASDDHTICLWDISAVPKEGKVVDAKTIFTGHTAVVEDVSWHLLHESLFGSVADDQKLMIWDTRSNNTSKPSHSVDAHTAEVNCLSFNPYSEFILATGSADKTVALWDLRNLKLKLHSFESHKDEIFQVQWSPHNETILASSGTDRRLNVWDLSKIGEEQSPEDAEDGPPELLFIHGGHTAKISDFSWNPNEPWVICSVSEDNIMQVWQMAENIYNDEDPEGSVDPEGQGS
Method: as §1, §2, §3, §4, §5

[1] = read-out: EZH2 Mutant Y641N Nucleosome assay IC50

Chain of EZH2 Mutant Y641N (Q15910 whole entry Y641N, looked up): as the sequence (Q15910 whole entry, looked up) above, with Y641N counted along it
Chain of EZH2 Mutant Y641N (O75530 whole entry partner, looked up): as the sequence (O75530 whole entry partner, looked up) above
Chain of EZH2 Mutant Y641N (Q15022 whole entry partner, looked up): as the sequence (Q15022 whole entry partner, looked up) above
Chain of EZH2 Mutant Y641N (Q09028 whole entry partner, looked up): as the sequence (Q09028 whole entry partner, looked up) above

SMILES | IC50 (EZH2 Mutant Y641N; [1]) [µM] | Ki (WT EZH2) [nM] | IC50 (EZH2 Mutant Y641N; EZH2 Mutant Y641N Nucleosome assay IC50 (μM)) [µM]
COc1cc(C)[nH]c(=O)c1CN1CCc2c(C)cc([C@H](OC)[C@@H]3CCOC3)c(Cl)c2C1=O [Example 83, 8-chloro-2-[(4-methoxy-6-methyl-2-oxo-1,2-dihydropyridin-3-yl)methyl]-7-{(R)-methoxy[(3R)-tetrahydrofuran-3-yl]methyl}-5-methyl-3,4-dihydroisoquinolin-1(2H)-one] | 0.004 | 0.4 | 
Cc1cc(C)c(CN2CCc3c(Cl)cc(C(C)N4CCOCC4)c(Cl)c3C2=O)c(=O)[nH]1 (single isomer, unassigned; (-)) [Example 91, (−)-5,8-dichloro-2-[(4,6-dimethyl-2-oxo-1,2-dihydropyridin-3-yl)methyl]-7-[1-(morpholin-4-yl)ethyl]-3,4-dihydroisoquinolin-1(2H)-one] | 0.023 | 1 | 
CC(=O)N1CC(=C(C)c2cc(Cl)c3c(c2Cl)C(=O)N(Cc2c(C)cc(C)[nH]c2=O)CC3)C1 [Example 76] | 0.043 | 5 | 
Cc1cc(C)c(CN2CCc3c(Cl)cc(C(CO)N4CCOCC4)c(Cl)c3C2=O)c(=O)[nH]1 (single isomer, unassigned) [Example 68] | 0.074 | 7 | 
COC(c1cc(Cl)c2c(c1Cl)C(=O)N(Cc1c(C)cc(C)[nH]c1=O)CC2)C1(O)CCOCC1 (single isomer, unassigned) [Example 53] | 0.017 | 1 | 
Cc1cc(C)c(CN2CCc3c(Cl)cc(C(CO)N4CC[C@@H](F)C4)c(Cl)c3C2=O)c(=O)[nH]1 (single isomer, unassigned) [Example 7] | 1.62 | 171 | 
COc1cc(C)[nH]c(=O)c1CN1CCc2c(Cl)cc([C@H](CO)[C@@H]3CCCO3)c(Cl)c2C1=O [Example 106] | 0.008 | 0.6 | 
Cc1cc(C)c(CN2CCc3c(Cl)cc(C(CO)N4CC[C@H](F)C4)c(Cl)c3C2=O)c(=O)[nH]1 (stereo partly shown) [Example 58] | 0.513 | 57 | 
COc1cc(C)[nH]c(=O)c1CN1CCc2c(Cl)cc([C@H](CO)[C@H]3CCCO3)c(Cl)c2C1=O [Example 105] | 0.013 | 0.8 | 
COC(c1cc(Cl)c2c(c1Cl)C(=O)N(Cc1c(C)cc(C)[nH]c1=O)CC2)C1CCOCC1 (single isomer, unassigned) [Example 50] | 0.129 | 77 | 
Cc1cc(C)c(CN2CCc3ccc([C@@H](CO)[C@@H]4CCOC4)c(Cl)c3C2=O)c(=O)[nH]1 (racemic) [Example 64] | 0.043 | 7 | 
Cc1cc(OC(F)F)c(CN2CCc3c(Cl)cc(C(CO)C4CCOCC4)c(Cl)c3C2=O)c(=O)[nH]1 (single isomer, unassigned) [Example 56] | 0.004 |  | 
[2H]C([2H])([2H])OC(c1cc(Cl)c2c(c1Cl)C(=O)N(Cc1c(C)cc(C)[nH]c1=O)CC2)C1CCN(C(=O)CO)CC1 (racemic) [Example 70] |  |  | 0.006
COC(c1cc(Cl)c2c(c1Cl)C(=O)N(Cc1c(C)cc(C)[nH]c1=O)CC2)C1CCN(C(=O)CC#N)CC1 (single isomer, unassigned) [Example 71] | 0.003 |  | 
COC(c1cc(Cl)c2c(c1Cl)C(=O)N(Cc1c(C)cc(C)[nH]c1=O)CC2)C1CCOCC1 (single isomer, unassigned) [Example 51] | 0.002 |  | 
Cc1cc(C)c(CN2CCc3c(Cl)cc([C@@H](CO)[C@@H]4CCOC4)c(Cl)c3C2=O)c(=O)[nH]1 [Example 4, 5,8-dichloro-2-[(4,6-dimethyl-2-oxo-1,2-dihydropyridin-3-yl)methyl]-7-{(1S)-2-hydroxy-1-[(3S)-tetrahydrofuran-3-yl]ethyl}-3,4-dihydroisoquinolin-1(2H)-one] | 1.95 |  | 

Results, then the molecule that gave them:

IC50 (EZH2 Mutant Y641N; [1]) [µM] | Ki (WT EZH2) [nM] | IC50 (EZH2 Mutant Y641N; EZH2 Mutant Y641N Nucleosome assay IC50 (μM)) [µM] | SMILES
0.008 | 0.7 |  | Cc1cc(C)c(CN2CCc3c(Cl)cc(C(C)N4CCNCC4)c(Cl)c3C2=O)c(=O)[nH]1 (racemic) [Example 205]
0.85 | 62 |  | COC(c1cc(Cl)c2c(c1Cl)C(=O)N(Cc1c(C)cc(C)[nH]c1=O)CC2)C1CCNCC1 (single isomer, unassigned) [Example 167]
0.005 | 0.3 |  | COC(c1cc(Cl)c2c(c1Cl)C(=O)N(Cc1c(C)cc(C)[nH]c1=O)CC2)C1CC[S+]([O-])CC1 (single isomer, unassigned) [Example 115]
2.63 | 328 |  | COC(c1cc(Cl)c2c(c1Cl)C(=O)N(Cc1c(C)cc(C)[nH]c1=O)CC2)C1CN(C(=O)[C@@H](C)O)C1 (single isomer, unassigned) [Example 171]
0.005 | 0.3 |  | COC(c1cc(Cl)c2c(c1Cl)C(=O)N(Cc1c(C)cc(C)[nH]c1=O)CC2)C1CN(S(C)(=O)=O)C1 (single isomer, unassigned) [Example 176]
0.017 | 3 |  | Cc1cc(C)c(CN2CCc3ccc(C(CO)C4CCOC4)c(Cl)c3C2=O)c(=O)[nH]1 (single isomer, unassigned) [Example 99]
0.122 | 28 |  | COc1cc(C)[nH]c(=O)c1CN1CCc2c(Cl)cc(C(C)C3CN(C)C3)c(Cl)c2C1=O (single isomer, unassigned) [Example 88, 5,8-dichloro-2-[(4-methoxy-6-methyl-2-oxo-1,2-dihydropyridin-3-yl)methyl]-7-[1-(1-methylazetidin-3-yl)ethyl]-3,4-dihydroisoquinolin-1 (2H)-one]
0.002 | 0.2 |  | COC(c1cc(Cl)c2c(c1Cl)C(=O)N(Cc1c(C)cc(C)[nH]c1=O)CC2)C1CCNCC1 (single isomer, unassigned) [Example 166]
0.018 | 1.9 |  | CCC(OC)c1cc(Cl)c2c(c1Cl)C(=O)N(Cc1c(OC)cc(C)[nH]c1=O)CC2 (single isomer, unassigned) [Example 107]
1.17 | 184 |  | COC(c1cc(Cl)c2c(c1Cl)C(=O)N(Cc1c(C)cc(C)[nH]c1=O)CC2)C1CN(C(=O)CO)C1 (single isomer, unassigned) [Example 128]
0.109 | 8 |  | COC(c1cc(Cl)c2c(c1Cl)C(=O)N(Cc1c(C)cc(C)[nH]c1=O)CC2)[C@@H](C)CO (single isomer, unassigned) [Example 142]
0.517 | 56 |  | Cc1cc(C)c(CN2CCc3c(Cl)cc(C(C)C4CN(C(=O)CO)C4)c(Cl)c3C2=O)c(=O)[nH]1 (single isomer, unassigned) [Example 183]
0.008 | 0.7 |  | COC(c1cc(C)c2c(c1Cl)C(=O)N(Cc1c(C)cc(C)[nH]c1=O)CC2)C1CCN(C(=O)CO)CC1 (single isomer, unassigned) [Example 168]
1.17 | 103 |  | COC(c1cc(Cl)c2c(c1Cl)C(=O)N(Cc1c(C)cc(C)[nH]c1=O)CC2)[C@H](C)CO (single isomer, unassigned) [Example 140]
0.014 | 2 |  | COC(c1ccc2c(c1Cl)C(=O)N(Cc1c(C)cc(C)[nH]c1=O)CC2)C1CCOC1 (single isomer, unassigned) [Example 135]
0.002 | 0.2 |  | COc1cc(C)[nH]c(=O)c1CN1CCc2c(C)cc([C@H](OC)[C@H]3CCOC3)c(Cl)c2C1=O (single isomer, unassigned) [Example 84, 8-chloro-2-[(4-methoxy-6-methyl-2-oxo-1,2-dihydropyridin-3-yl)methyl]-7-{(R*)-methoxy[(3S*)-tetrahydrofuran-3-yl]methyl}-5-methyl-3,4-dihydroisoquinolin-1(2H)-one]
0.207 | 16 |  | Cc1cc(C)c(CN2CCc3c(Cl)cc(C(C)N4CCN(C)CC4)c(Cl)c3C2=O)c(=O)[nH]1 (racemic) [Example 202]
0.309 | 44 |  | Cc1cc(C)c(CN2CCc3c(C)cc(C(C)C4CN(S(C)(=O)=O)C4)c(Cl)c3C2=O)c(=O)[nH]1 (single isomer, unassigned) [Example 194]
0.002 |  |  | COC(c1cc(Cl)c2c(c1Cl)C(=O)N(Cc1c(C)cc(C)[nH]c1=O)CC2)C1CCN(C=O)CC1 (single isomer, unassigned) [Example 73]

Source: patent US10570121B2, “Substituted dihydroisoquinolinone compounds” (priority 2014, dated 2020)
